The term Ki denotes the equilibrium dissociation constant of an inhibitor or competing ligand from its target. Usually IC50 stands for the concentration at which inhibition is half-maximal.

Experiment [1] deals with cloned human P2Y1 receptors (Homo sapiens (Human), UniProt P47900). Description: Binding Assay B: Scintillation Proximity Assay (SPA) for P2Y1 binding. Here is the method:
Binding Assay B—Scintillation Proximity Assay (SPA) for P2Y1 Binding
A SPA membrane binding assay was used to identify inhibitors of [^33P] […] Binding reactions were performed in 384-well OptiPlates (PerkinElmer Life Sciences, Cat #6007299) in a volume of 50 μL containing ˜15 fmol of P2Y1 receptor (1.7 μg of total protein), 0.3 nM [^33P] […] Reactions were allowed to proceed to completion at room temperature for 1 hour followed by centrifugation of the plate for 5 min. About 40 μL of the aqueous solution was aspirated. Plates were sealed and the [^33P]
Background: Scintillation proximity formats need no separation of bound from free tracer.

Experiment [2] deals with human platelet rich plasma (PRP). Nature of the experiment: ADP induced platelet aggregation assay. It counts as cell-based. The settings on record: 5 min, read-out: PA IC50 (μM) @ 10 μM ADP. Here is the method: ADP Induced Platelet Aggregation Assay
The ability of P2Y1 antagonists covered in the present invention to inhibit platelet aggregation induced by 10 μM ADP was tested using human platelet rich plasma (PRP) as described in Platelet Protocols: Research and Clinical Laboratory Procedures (White, M. M. et al., Academic Press (1999)). Human blood was collected in 30 μM (final concentration in blood) argatroban (GSK) as the anticoagulant at a ratio of 1 ml per 9 ml of blood. The PRP was isolated by centrifugation at 170 g for 12 minutes. The platelet poor plasma (PPP) was used as the blank for optical aggregometry. Compounds of the present invention in DMSO solution was preincubated with 250 μl PRP at 37° C. for 1 minute with stirring speed of 1000 rpm. Aggregation was initiated by addition of 2.5 μl of 1 mM ADP (Chrono-log, Havertown, Pa.) for a final ADP concentration of 10 uM. Platelet aggregation was monitored using Optical Aggregometer (Chrono-log, Havertown, Pa.) and the area under the curve (AUC) at 5 minute was measured. IC50 was calculated using vehicle control as 0% inhibition.
The platelet aggregation assay measures the in vitro antiplatelet activity of a compound in platelet rich plasma. The assay is sensitive to plasma protein binding, and is believed to be a better predictor of actual in vivo activity.

Where [3] appears, read: SPA, 0.3 nM [33P] 2MeS-ADP, Cheng-Prusoff, read-out: P2Y1 Ki (nM) using binding assay B.

Like-named read-outs stand apart in the source and are kept apart here.

Chain of cloned human P2Y1 receptors (P47900 whole entry): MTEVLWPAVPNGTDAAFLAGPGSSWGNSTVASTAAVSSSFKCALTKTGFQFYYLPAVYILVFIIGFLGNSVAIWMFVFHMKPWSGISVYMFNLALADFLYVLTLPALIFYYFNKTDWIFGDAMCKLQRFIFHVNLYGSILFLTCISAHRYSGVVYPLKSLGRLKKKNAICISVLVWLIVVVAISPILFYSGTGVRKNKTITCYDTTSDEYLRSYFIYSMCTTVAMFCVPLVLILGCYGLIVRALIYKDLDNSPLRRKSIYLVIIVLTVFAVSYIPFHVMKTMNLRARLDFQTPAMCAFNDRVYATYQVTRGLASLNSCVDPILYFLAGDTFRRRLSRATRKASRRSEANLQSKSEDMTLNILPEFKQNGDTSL

In experiment [1], `CC(C)(C)CN1CCC2(CC1)CN(c1ccccc1Nc1nnc(-c3ccc(F)cc3)s1)c1c(O)ccc(C(F)(F)F)c12` [Example 4, 1-(2-(5-(4-Fluorophenyl)-1,3,4-thiadiazol-2-ylamino)phenyl)-1′-neopentyl-4-(trifluoromethyl)spiro[indoline-3,4′-piperidin]-7-ol] displayed a Ki of 15 nM. The IC50 in experiment [2] turned out to be 2.2 µM.

As to `CC(C)(C)CN1CCC2(CC1)CN(c1ccccc1Nc1nnc(-c3ccc(OC(F)(F)F)cc3)s1)c1c(O)ccc(Cl)c12` [Example 26, 4-chloro-1′-neopentyl-1-(2-((5-(4-(trifluoromethoxy)phenyl)-1,3,4-thiadiazol-2-yl)amino)phenyl)spiro[indoline-3,4′-piperidin]-7-ol], in experiment [1] (setting [3]), the Ki stood at 13 nM. Besides, the IC50 in experiment [2] came out at 0.9 µM.

Consider `CC(C)(C)CN1CCC2(CC1)CN(c1ccccc1Nc1nnc(-c3ccccc3Cl)s1)c1c(O)ccc(Cl)c12` [Example 19, 4-chloro-1-(2-((5-(2-chloro-phenyl)-1,3,4-thiadiazol-2-yl)amino)phenyl)-1′-neopentylspiro[indoline-3,4′-piperidin]-7-ol], for which the inhibition constant Ki in experiment [1] (setting [3]) is 28 nM. The half-inhibitory concentration (IC50) in experiment [2] amounted to 10.7 µM.

As to `CC(C)(C)CN1CCC2(CC1)CN(c1ccccc1Nc1nnc(-c3ccc(OC(F)(F)F)cc3)s1)c1c(O)cc(F)c(Cl)c12` [Example 33, 4-chloro-5-fluoro-1′-neopentyl-1-(2-((5-(4-(trifluoromethoxy)-phenyl)-1,3,4-thiadiazol-2-yl)amino)phenyl)spiro[indoline-3,4′-piperidin]-7-ol], the Ki in experiment [1] came to 23 nM. For the same molecule, in experiment [2], the concentration for half-maximal inhibition (IC50) amounted to 9.2 µM.

On to `CC(C)(C)CN1CCC2(CC1)CN(c1ccccc1Nc1nnc(-c3cccc(Cl)c3)s1)c1c(O)ccc(Cl)c12` [Example 20, 4-chloro-1-(2-((5-(3-chloro-phenyl)-1,3,4-thiadiazol-2-yl)amino)phenyl)-1′-neopentylspiro[indoline-3,4′-piperidin]-7-ol], for which the inhibition constant (Ki) in experiment [1] (setting [3]) was found to be 16 nM. The IC50 in experiment [2] turned out to be 2.6 µM.

Consider `CC(C)(C)CN1CCC2(CC1)CN(c1ccccc1Nc1nnc(-c3ccc(C(F)(F)F)cc3)s1)c1c(O)ccc(C(F)(F)F)c12` [Example 3, 1′-Neopentyl-4-(trifluoromethyl)-1-(2-(5-(4-(trifluoromethyl)phenyl)-1,3,4-thiadiazol-2-ylamino)phenyl)spiro[indoline-3,4′-piperidin]-7-ol], for which, in experiment [1] (setting [3]), the Ki worked out at 16 nM. In experiment [2], the half-maximal inhibitory concentration (IC50) turned out to be 0.5 µM.

In the case of `CC(C)(C)CN1CCC2(CC1)CN(c1ccccc1Nc1nc(C(C)(C)C)ns1)c1c(O)ccc(Cl)c12` [Example 36, 1-(2-(3-tert-Butyl-1,2,4-thiadiazol-5-ylamino)phenyl)-4-chloro-1′-neopentylspiro[indoline-3,4′-piperidin]-7-ol], the inhibition constant (Ki) in experiment [1] was 8 nM. For the same molecule, the IC50 in experiment [2] came to 2.1 µM.

For `CC(C)(C)CN1CCC2(CC1)CN(c1ccccc1Nc1nnc(-c3ccc(OC(F)(F)F)cc3)s1)c1c(O)ccc(F)c12` [Example 30, 4-fluoro-1′-neopentyl-1-(2-((5-(4-(trifluoromethoxy)-phenyl)-1,3,4-thiadiazol-2-yl)amino)phenyl)spiro[indoline-3,4′-piperidin]-7-ol], the Ki in experiment [1] turned out to be 5 nM. For the same molecule, the concentration for half-maximal inhibition (IC50) in experiment [2] turned out to be 2 µM.

Turning to `CC(C)(C)CN1CCC2(CC1)CN(c1ccccc1Nc1nnc(-c3ccc(C(F)(F)F)cc3)s1)c1c(O)ccc(C#N)c12` [Example 45, 7-Hydroxy-1′-neopentyl-1-(2-(5-(4-(trifluoromethyl)phenyl)-1,3,4-thiadiazol-2-ylamino)phenyl)spiro[indoline-3,4′-piperidine]-4-carbonitrile], the Ki in experiment [1] was found to be 3 nM. The half-maximal inhibitory concentration (IC50) in experiment [2] was 3.5 µM.

For `CC(C)(C)CN1CCC2(CC1)CN(c1ccccc1Nc1nnc(-c3ccc(Cl)cc3)s1)c1c(O)ccc(Cl)c12` [Example 21, 4-chloro-1-(2-((5-(4-chloro-phenyl)-1,3,4-thiadiazol-2-yl)amino)phenyl)-1′-neopentylspiro[indoline-3,4′-piperidin]-7-ol], in experiment [1] (setting [3]), the Ki was determined as 13 nM. Moreover, the half-maximal inhibitory concentration (IC50) in experiment [2] stood at 1.3 µM.

In the case of `CCOC(=O)c1sc(Nc2ccccc2N2CC3(CCN(CC(C)(C)C)CC3)c3c(Cl)ccc(O)c32)nc1C(F)(F)F` [Example 40, Ethyl 2-(2-(4-chloro-7-hydroxy-1′-neopentylspiro[indoline-3,4′-piperidine]-1-yl)phenylamino)-4-(trifluoromethyl)thiazole-5-carboxylate], in experiment [1], the inhibition constant (Ki) worked out at 19 nM. Besides, the IC50 in experiment [2] was 1 µM.

`CC(C)(C)CN1CCC2(CC1)CN(c1ccccc1Nc1nnc(-c3ccc(C(F)(F)F)cn3)s1)c1c(O)ccc(Cl)c12` [Example 8, 4-Chloro-1′-neopentyl-1-(2-(5-(5-(trifluoromethyl)pyridin-2-yl)-1,3,4-thiadiazol-2-ylamino)phenyl)spiro[indoline-3,4′-piperidin]-7-ol] returned a Ki in experiment [1] of 7 nM. Also, the half-maximal inhibitory concentration (IC50) in experiment [2] was 1.5 µM.

In the case of `CC(C)(C)CN1CCC2(CC1)CN(c1ccccc1Nc1cc(-c3ccccc3)on1)c1c(O)ccc(Cl)c12` [Example 38, 4-Chloro-1′-neopentyl-1-(2-(5-phenylisoxazol-3-ylamino)phenyl)spiro[indoline-3,4′-piperidin]-7-ol], the Ki in experiment [1] (setting [3]) is 66 nM. Besides, in experiment [2], the IC50 stood at 9 µM.

In turn, `CC(C)(C)CN1CCC2(CC1)CN(c1ccccc1Nc1nnc(-c3cccc(F)c3)s1)c1c(O)ccc(Cl)c12` [Example 29, 4-chloro-1-(2-((5-(3-fluoro-phenyl)-1,3,4-thiadiazol-2-yl)amino)phenyl)-1′-neopentylspiro[indoline-3,4′-piperidin]-7-ol] showed a Ki in experiment [1] of 23 nM. Also, the 50% inhibitory concentration (IC50) in experiment [2] was 2.4 µM.

Consider `CC(C)(C)CN1CCC2(CC1)CN(c1ccccc1Nc1nnc(-c3ccc(C(C)(C)C)cc3)s1)c1c(O)ccc(C(F)(F)F)c12` [Example 2, 1-(2-(5-(4-tert-Butylphenyl)-1,3,4-thiadiazol-2-ylamino)phenyl)-1′-neopentyl-4-(trifluoromethyl)spiro[indoline-3,4′-piperidin]-7-ol], for which, in experiment [1] (setting [3]), the inhibition constant (Ki) is 26 nM. For the same molecule, the IC50 in experiment [2] came to 0.9 µM.

Molecule `CC(C)(C)CN1CCC2(CC1)CN(c1ccccc1Nc1nnc(-c3ccccc3)s1)c1c(O)ccc(C(F)(F)F)c12` [Example 1, 1′-Neopentyl-1-(2-(5-phenyl-1,3,4-thiadiazol-2-ylamino)phenyl)-4-(trifluoromethyl)spiro[indoline-3,4′-piperidin]-7-ol] gave a Ki in experiment [1] of 10 nM. Further, the concentration for half-maximal inhibition (IC50) in experiment [2] came to 1 µM.

`CC(C)(C)CN1CCC2(CC1)CN(c1ccccc1Nc1ccc(C(F)(F)F)cn1)c1c(O)ccc(Cl)c12` [Example 42, 4-Chloro-1′-neopentyl-1-(2-(5-(trifluoromethyl)pyridin-2-ylamino)phenyl)spiro[indoline-3,4′-piperidin]-7-ol] returned an inhibitory constant (Ki) in experiment [1] of 22 nM. The IC50 in experiment [2] worked out at 22.8 µM.

The molecule `CC(C)(C)CN1CCC2(CC1)CN(c1ccccc1Nc1nnc(-c3ccccn3)s1)c1c(O)ccc(Cl)c12` [Example 28, 4-chloro-1′-neopentyl-1-(2-((5-(pyridin-2-yl)-1,3,4-thiadiazol-2-yl)amino)phenyl)-spiro[indoline-3,4′-piperidin]-7-ol] had a Ki in experiment [1] of 6.8 nM. The IC50 in experiment [2] turned out to be 5.8 µM.

For the molecule `CC(C)(C)CN1CCC2(CC1)CN(c1ccccc1Nc1nnc(-c3ccc(OC(F)(F)F)cc3)s1)c1c(O)c(F)cc(Cl)c12` [Example 32, 4-chloro-6-fluoro-1′-neopentyl-1-(2-((5-(4-(trifluoromethoxy)-phenyl)-1,3,4-thiadiazol-2-yl)amino)phenyl)spiro[indoline-3,4′-piperidin]-7-ol], in experiment [1], affinity was put at a Ki of 69 nM. Moreover, the 50% inhibitory concentration (IC50) in experiment [2] amounted to 15.6 µM.

`CC(C)(C)CN1CCC2(CC1)CN(c1ccccc1Nc1nnc(-c3ccc(Cl)c(Cl)c3)s1)c1c(O)ccc(Cl)c12` [Example 25, 4-chloro-1-(2-((5-(3,4-dichloro-phenyl)-1,3,4-thiadiazol-2-yl)amino)phenyl)-1′-neopentylspiro[indoline-3,4′-piperidin]-7-ol]: the affinity in experiment [1], expressed as Ki, was 19 nM. The concentration for half-maximal inhibition (IC50) in experiment [2] stood at 3.7 µM.

The molecule `COC(=O)c1ccc(O)c2c1C1(CCN(CC(C)(C)C)CC1)CN2c1ccccc1Nc1nnc(-c2ccc(C(F)(F)F)cc2)s1` [Example 43, Methyl 7-hydroxy-1′-neopentyl-1-(2-(5-(4-(trifluoromethyl)phenyl)-1,3,4-thiadiazol-2-ylamino)phenyl)spiro[indoline-3,4′-piperidine]-4-carboxylate] registered an inhibition constant Ki in experiment [1] of 8 nM. Also, the IC50 in experiment [2] came out at 3.1 µM.

Molecule `Cc1cccc(-c2nnc(Nc3ccccc3N3CC4(CCN(CC(C)(C)C)CC4)c4c(Cl)ccc(O)c43)s2)c1` [Example 22, 4-chloro-1′-neopentyl-1-(2-((5-(m-tolyl)-1,3,4-thiadiazol-2-yl)amino)phenyl)spiro[indoline-3,4′-piperidin]-7-ol] returned a Ki in experiment [1] of 22 nM. For the same molecule, the concentration for half-maximal inhibition (IC50) in experiment [2] amounted to 4 µM.

(Values after patent US9120798B2, “Amino-heteroaryl 7-hydroxy-spiropiperidine indolinyl antagonists of P2Y1 receptor” (priority 2012, dated 2015).)
